This note sets out measurements from patent publication EP1981504B1, “THIADIAZOLE DERIVATIVES FOR THE TREATMENT OF NEURO DEGENERATIVE DISEASES” (NV reMYND, priority 2006, dated 2007).

In brackets after ≈: the same amount, converted by molar mass.

For assay [1], the system named is dopaminergic substantia nigra neurons. The assay is described as follows: in vivo inhibition of paraquat-triggered loss of substantia nigra neurons (tyrosine hydroxylase immunohistochemistry). The note with it: mice, paraquat intraperitoneal not higher than 8 mg/kg/day, compound not higher than 20 mg/kg body weight/day, 8 weeks treatment, versus vehicle. As to the method:
In order to model neuronal loss in the substantia nigra region of the brain, mice were treated with paraquat (intraperitoneal) at a dose not higher than 8 mg/kg/day for a continuous period of 15-100 days. These mice were also chronically co-treated during that period with: • compound 60 (1-[4-methoxyphenylsulfonyl]-4-[3-(4-methylbenzyl)-1,2,4-thiadiazol-5-yl]-2-methylpiperazine), or • compound 32 (1-[4-methoxyphenylsulfonyl]-4-[3-(4-fluorobenzyl)-1,2,4-thiadiazol-5-yl]piperazine), or • compound 53 (1-[4-methoxyphenylsulfonyl]-4-[3-(3-methoxy-benzyl)-1,2,4-thiadiazol-5-yl]piperazine), each being administered at a dose not higher than 20 mg/kg body weight/day), or by vehicle only (no active compound). Mice treatment by means of vehicle or a compound of the invention started 2 days before administration of paraquat.
At the end of the treatment period, mice were sacrificed and the corresponding brains were used for immunohistochemical analysis. […] Using antibodies raised against tyrosin hydroxylase (anti-tyrosin hydroxylase), tyrosine hydroxylase containing neurons in the brains were detected.
Three groups of mice were treated with either paraquat and compound 53 (group 3; n=6), or paraquat and vehicle of compound 53 (group 2; n=4), or vehicle paraquat and vehicle of compound 53 (group 1; n=3). […] Per mouse, the median %TH-positive areas (of the substantia nigra regions) was determined. […]

The test system of the next assay is M17-SYNwt cells. The assay can be described thus: α-synuclein cytotoxicity assay (LDH leakage from paraquat-treated α-synuclein over-expressing neuroblastoma cells). It counts as cell-based, human. The note with it: paraquat 32 mM, 40 hours, LDH release; for EC50: Homo sapiens, Neuroblastoma cell; for EC50 / EC50 (µg/mL): 10 point curves in duplicate; for %I: percent inhibition of synuclein cytotoxicity at most effective concentration of test compound, relative to untreated paraquat cells. The essentials: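 M17 neuroblastoma cells over-expressing wild-type α-synuclein were challenged with paraquat, and cytotoxicity was read as LDH release. Protection was expressed as percent reduction of paraquat-induced LDH release relative to untreated paraquat cells and control cells. Actives were retested in 10-point duplicate dose responses.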

For `COc1ccc(S(=O)(=O)N2CCN(c3nc(Cc4cccc(OC)c4)ns3)CC2)cc1` [Compound 53, 1-[4-methoxyphenylsulfonyl]-4-[3-(3-methoxybenzyl)-1,2,4-thiadiazol-5-yl]piperazine], the “TH-positive area of the substantia nigra” value in assay [1] is on record as “protects dopaminergic substantia nigra neurons against paraquat-triggered degeneration”. In the assay on M17-SYNwt cells, the midpoint of the response, the EC50, lay at 0.66 ng/mL (≈ 0.00143 µM) and the “%I” value is listed as 83%.

Regarding `Cc1ccc(C(=O)N2CCCN(c3nc(Cc4ccc(F)cc4)ns3)CC2)cc1` [Compound 190, 1-(4-methylbenzoyl)-4-[3-(4-fluorobenzyt)-1,2,4-thiadiazol-5-yl]-1,4-diazepane], in the assay on M17-SYNwt cells, the response was half-maximal at 2770 ng/mL (≈ 6.75 µM) (EC50) and the “%I” value is 87%.

Regarding `O=C(c1ccc2c(c1)OCO2)N1CCCN(c2nc(Cc3ccc(F)cc3)ns2)CC1` [Compound 191, 1-(1,3-benzodioxol-5-ylcarbonyl)-4-[3-(4-fluorobenzyl)-1,2,4-thiadiazol-5-yl]-1,4-diazepane], the “%I” value in the assay on M17-SYNwt cells came out at 63%.

For `COc1ccc(S(=O)(=O)N2CCN(c3nc(Cc4cccc(F)c4)ns3)CC2)cc1` [Compound 193, 1-[4-methoxyphenylsulfonyl]-4-[3-(3-fluoro-benzyl)-1,2,4-thiadiazol-5-yl]piperazine], in the assay with M17-SYNwt cells, the EC50 was determined as 4.8 ng/mL (≈ 0.0107 µM) and the “%I” value stood at 68%.

Consider `COc1ccc(S(=O)(=O)N2CCN(c3nc(Cc4ccccc4F)ns3)CC2)cc1` [Compound 194, 1-[4-methoxyphenylsulfonyl]-4-[3-(2-fluoro-benzyl)-1,2,4-thiadiazol-5-yl]piperazine], for which, in the assay with M17-SYNwt cells, the EC50 was 1.2 ng/mL (≈ 0.00268 µM) and the “%I” value is given as 102%.

Turning to `COc1ccccc1S(=O)(=O)N1CCN(c2nc(Cc3ccc(F)cc3)ns2)CC1` [Compound 195, 1-[2-methoxyphenylsulfonyl]-4-[3-(4-fluoro-benzyl)-1,2,4-thiadiazol-5-yl]piperazine], in the assay with M17-SYNwt cells, the midpoint of the response, the EC50, lay at 25 ng/mL (≈ 0.0557 µM) and the “%I” value is 99%.

In the case of `CCOc1ccc(S(=O)(=O)N2CCN(c3nc(Cc4ccc(F)cc4)ns3)CC2)cc1` [Compound 196, 1-[4-ethoxyphenylsulfonyl]-4-[3-(4-fluoro-benzyl)-1,2,4-thiadiazol-5-yl]piperazine], in the assay on M17-SYNwt cells, the EC50 came to 8.1 ng/mL (≈ 0.0175 µM) and the “%I” value is 42%.

As for `CCc1ccc(S(=O)(=O)N2CCN(c3nc(Cc4ccc(F)cc4)ns3)CC2)cc1` [Compound 197, 1-[4-ethylphenylsulfonyl]-4-[3-(4-fluoro-benzyl)-1,2,4-thiadiazol-5-yl]piperazine], in the assay on M17-SYNwt cells, the EC50 is 239 ng/mL (≈ 0.535 µM) and the “%I” value is listed as 84%.

In the case of `O=S(=O)(c1ccccc1)N1CCN(c2nc(Cc3ccc(F)cc3)ns2)CC1` [Compound 198, 1-phenylsulfonyl-4-[3-(4-fluoro-benzyl)-1,2,4-thiadiazol-5-yl]piperazine], in the assay with M17-SYNwt cells, the EC50 is 146 ng/mL (≈ 0.349 µM) and the “%I” value was 25%.

As to `COc1ccc(S(=O)(=O)N2CCN(c3nc(Cc4ccccc4)ns3)CC2)cc1` [Compound 199, 1-[4-methoxyphenylsulfonyl]-4-[3-benzyl-1,2,4-thiadiazol-5-yl]piperazine], in the assay with M17-SYNwt cells, the EC50 was 1.6 ng/mL (≈ 0.00372 µM) and the “%I” value is 38%.

Take `CCC(=O)Oc1ccc(S(=O)(=O)N2CCN(c3nc(Cc4ccc(F)cc4)ns3)CC2)cc1` [Compound 200, 1-(4-propionyloxy)benzene-sulfonyl-4-[3-(4-fluoro-benzyl)-1,2,4-thiadiazol-5-yl]piperazine]: in the assay on M17-SYNwt cells, the EC50 worked out at 51 ng/mL (≈ 0.104 µM) and the “%I” value is reported as 80%.

With `COc1ccc(S(=O)(=O)N2CCN(c3nc(Cc4cccc(C)c4)ns3)CC2)cc1` [Compound 201], in the assay with M17-SYNwt cells, the EC50 was 2.1 ng/mL (≈ 0.00472 µM) and the “%I” value came out at 97%.

As for `COc1ccc(S(=O)(=O)N2CCN(c3nc(Cc4ccccc4C)ns3)CC2)cc1` [Compound 202], in the assay with M17-SYNwt cells, the EC50 worked out at 7.5 ng/mL (≈ 0.0169 µM) and the “%I” value is 63%.

For `COc1ccc(S(=O)(=O)N2CCN(c3nc(Cc4ccccc4OC)ns3)CC2)cc1` [Compound 203], in the assay with M17-SYNwt cells, a half-maximal response (EC50) required 6.2 ng/mL (≈ 0.0135 µM) and the “%I” value is listed as 61%.

As to `COc1ccc(S(=O)(=O)N2CCN(c3nc(Cc4ccc(F)c(C)c4)ns3)CC2)cc1` [Compound 204], in the assay with M17-SYNwt cells, the EC50 turned out to be 1 ng/mL (≈ 0.00216 µM) and the “%I” value is 90%.

`COc1ccc(Cc2nsc(N3CCN(S(=O)(=O)c4ccc(OC)cc4)CC3)n2)cc1` [Compound 205]: in the assay on M17-SYNwt cells, it took 1.1 ng/mL (≈ 0.00239 µM) to reach a half-maximal effect (EC50) and the “%I” value turned out to be 53%.

In the case of `COc1cccc(Cc2nsc(N3CCN(S(=O)(=O)c4ccc(Br)cc4)CC3)n2)c1` [Compound 207], in the assay on M17-SYNwt cells, it took 28 ng/mL (≈ 0.055 µM) to reach a half-maximal effect (EC50) and the “%I” value came out at 83%.

Regarding `COc1ccc(S(=O)(=O)N2CCN(c3nc(Cc4cccc(OC)c4)ns3)CC2C)cc1` (centres unmarked) [Compound 208, 1-[4-methoxyphenylsulfonyl]-4-[3-(3-methoxybenzyl)-1,2,4-thia-diazol-5-yl]-2-methyl-piperazine], in the assay on M17-SYNwt cells, the EC50 came out at 3.4 ng/mL (≈ 0.00716 µM) and the “%I” value is listed as 92%.

For `O=S(=O)(c1ccc(O)cc1)N1CCN(c2nc(Cc3ccc(F)cc3)ns2)CC1` [Compound 217, 1-(4-hydroxybenzenesulfonyl)-4-[3-(4-fluoro-benzyl)-1,2,4-thiadiazol-5-yl]piperazine], the “%I” value in the assay with M17-SYNwt cells is 77%.

Turning to “N-(2,6-dichlorophenyl)-4-[3-(4-fluorobenzyl)-1,2,4-thiadiazol-5-yl]-2-methylpiperazine-1-carboxamide [Compound 21]”, in the assay with M17-SYNwt cells, the “EC50 (µg/mL)” value is 0,79 µg/mL and the “%I” value is given as 70%.

Turning to “N-(3-cyanophenyl)-4-[3-(4-fluorobenzyl)-1,2,4-thiadiazol-5-yl]-2-methylpiperazine-1-carboxamide [Compound 22]”, in the assay with M17-SYNwt cells, the “EC50 (µg/mL)” value is recorded as 0,88 µg/mL and the “%I” value was 59%.
